According to publication PMC8706998, “Lipid Nanocarriers-Loaded Nanocomposite as a Suitable Platform to Release Antibacterial and Antioxidant Agents for Immediate Dental Implant Placement Restorative Treatment” (Pharmaceutics, 2021):

Columns and labels:
[1] = Screening of the liquid lipids: visual evaluation of QRC dissolution (5% w/w); assay type: physicochemical; settings: QRC 5% w/w (5:95)
Protocol: Labrasol®, Capryol PGMC®, Plurol®, Maisine®, Labrafil® M 1944 CS, and PEG-18 G/C were selected as liquid lipids to evaluate their ability to completely dissolve the desired amount of QRC (5% w/w). Briefly, 50 mg of QRC was added to 950 mg of each lipid. Each mixture was then ultrasonicated (Emerson Branson 1200, Branson, Brookfield, USA) for 15 min, allowing QRC powder disaggregation. Then, mixtures were maintained under magnetic stirring (200 rpm) and kept in a silicone thermostatic bath heated up to 60 °C (Heidolph MR3001K, Schwabach, Germany) for 30 min. After cooling at room temperature, samples were evaluated in terms of appearance and clearness.

[2] = QRC stability assay in aqueous environments (UV-Vis absorbance at 360 nm); assay type: physicochemical; settings: for decrease of absorbance ratio at 360 nm: QRC 0.01 mg/mL, room temperature, after 6 h
Protocol: QRC degradation rate was investigated in: (i) PBS pH 7.4 containing 10% v/v of DMSO (solvent A) and (ii) citrate buffer pH 5.5 solution amended with either 10% v/v of DMSO (solvent B) or 10% v/v of DMSO and 0.002% w/v of ACys (solvent C). The prepared QRC aqueous solutions (0.01 mg/mL) were kept at room temperature for 6 h in quartz cuvette located in the UV–Vis spectrophotometer (Shimadzu 1700 instrument, Kyoto, Japan). At scheduled time intervals (10 min), QRC spectra were recorded (from 200 to 700 nm) to highlight any changes in terms of sharp and absorption peaks. Results were reported as absorbance variation at lambda max (360 nm) over time according to the following equation: Abs variation %=Abstn/Abst0×100 where Abst0 and Abstn are the QRC absorbance recorded initially and at each time point, respectively. The stability assays were performed in triplicate. Results are reported as means ± SE.

[3] = set-up: method as in doi:10.1016/j.jfoodeng.2010.04.001; settings: Water pH 7; cited from earlier work

Compound: O=c1c(O)c(-c2ccc(O)c(O)c2)oc2cc(O)cc(O)c12 [QRC, quercetin]
- Appearance of QRC-liquid lipid mixture ([1]; Capryol PGMC): Opalescent
- Appearance of QRC-liquid lipid mixture ([1]; Labrafil M 1944 CS): Opalescent
- Appearance of QRC-liquid lipid mixture ([1]; Labrasol): Clear
- Appearance of QRC-liquid lipid mixture ([1]; Maisine): Opalescent
- Appearance of QRC-liquid lipid mixture ([1]; PEG-18 G/C): Slightly Opalescent
- Appearance of QRC-liquid lipid mixture ([1]; Plurol): Opalescent
- decrease of absorbance ratio at 360 nm ([2]; PBS pH 7.4 + 10% v/v DMSO): 42%
- QRC stability over time ([2]; citrate buffer pH 5.5 + 10% v/v DMSO + 0.002% w/v ACys): improved
- decrease of absorbance ratio at 360 nm ([2]; citrate buffer pH 5.5 + 10% v/v DMSO): 25%
- Solubility [3]: 0.002 [52] mg/mL
